The source of these data is patent US20160265061A1, “COMPOSITION FOR DIAGNOSING OVARIAN CANCER METASTASIS BY USING CPG METHYLATION IN GENE, AND USE THEREOF” (EWHA UNIVERSITY - INDUSTRY COLLABORATION FOUNDATION, priority 2013, published 2016).

SMILES strings stand for the structures.

The assay has as its system SK-OV-3 cell line. Put plainly: 5-aza-2′-deoxycytidine treatment of SK-OV-3 cell line, gene expression changes by qRT-PCR. Format: cell-based, Human. On the technique in general: Real-time PCR tracks product formation cycle by cycle.
[1] abbreviates: primary cell line SK-OV-3 treated with 5, 10 and 20 μM for 3 days, qRT-PCR normalized to GAPDH.

Regarding `Nc1ncn([C@H]2C[C@H](O)[C@@H](CO)O2)c(=O)n1` [5-aza-2′-deoxycytidine], where the note is “cell line SK-OV-3, treatment for 3 days, FIGS. 12 to 14”, the “changes in expressions of the three genes (ADAM12, NTN4 and PTGS2)” value is “increased”. Besides, where the note is “cell line SK-OV-3 treated with 5, 10 and 20 μM for 3 days, qRT-PCR normalized to GAPDH”, the “increase in ADAM12 gene expression” value is recorded as “about 2 fold”. Further, under setting [1], the “increase in NTN4 gene expression” value is reported as “about 2 fold” and the “increase in PTGS2 gene expression” value is given as “about 2 fold”.
